Experimental findings from PMC10046369, “Low-Affinity/High-Selectivity Dopamine Transport Inhibition Sufficient to Rescue Cognitive Functions in the Aging Rat” (Biomolecules, 2023) are described below.

Usually inhibition stands for the drop in the measured response relative to a control, in per cent. One may read the Ki as a measure of affinity in units of concentration, obtained from inhibition or displacement. Read a high Ki as a looser hold on the target.

One experiment deals with T1, PFPK5(P.falciparum) (Plasmodium falciparum, UniProt P61075).
T1 construct: gene CRK2
The experiment in a line: biochemical. Further details: KINOMEscan competition binding panel, per cent of control. As to conditions: read-out: %Ctrl @ 2800nM.

The next experiment deals with XCR1 / GPR5 (Homo sapiens, UniProt P46094). Description: cell-based. Set-up: Eurofins Cerep functional GPCR screen, antagonist mode, inhibition of control agonist response. As to conditions: read-out: % Inhibition of Control Agonist Response, Mean.
For a further experiment, the target named is T2, GAL1 (Homo sapiens, UniProt P47211).
T2 construct: gene GALR1
Description: cell-based. Further details: Eurofins Cerep functional GPCR screen, antagonist mode, inhibition of control agonist response. To be noted: read-out: % Inhibition of Control Agonist Response, Mean.

For a further experiment, the target named is T3, secretin (Homo sapiens, UniProt P47872).
T3 construct: gene SCTR
The experiment in a line: cell-based. Set-up: Eurofins Cerep functional GPCR screen, antagonist mode, inhibition of control agonist response. To be noted: read-out: % Inhibition of Control Agonist Response, Mean.

Experiment [1] deals with T4, human dopamine transporter (hDAT) (Homo sapiens, UniProt Q01959).
T4 construct: gene SLC6A3
Description: radioligand competition binding ([3H]BTCP), hDAT expressed in CHO cells. The format is cell-based.

T3 sequence (P47872 whole entry): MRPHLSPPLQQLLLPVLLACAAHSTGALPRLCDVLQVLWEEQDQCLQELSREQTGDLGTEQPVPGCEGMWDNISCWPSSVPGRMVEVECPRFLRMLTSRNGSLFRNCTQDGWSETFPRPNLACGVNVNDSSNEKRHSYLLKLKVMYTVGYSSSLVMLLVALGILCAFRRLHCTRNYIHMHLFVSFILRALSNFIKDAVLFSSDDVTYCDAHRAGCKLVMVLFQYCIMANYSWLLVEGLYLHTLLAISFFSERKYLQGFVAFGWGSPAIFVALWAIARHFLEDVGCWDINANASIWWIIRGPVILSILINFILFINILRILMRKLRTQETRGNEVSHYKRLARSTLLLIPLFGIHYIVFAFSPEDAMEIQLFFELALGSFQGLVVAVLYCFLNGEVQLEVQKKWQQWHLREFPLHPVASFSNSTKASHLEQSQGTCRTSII
T1 sequence (P61075 whole entry): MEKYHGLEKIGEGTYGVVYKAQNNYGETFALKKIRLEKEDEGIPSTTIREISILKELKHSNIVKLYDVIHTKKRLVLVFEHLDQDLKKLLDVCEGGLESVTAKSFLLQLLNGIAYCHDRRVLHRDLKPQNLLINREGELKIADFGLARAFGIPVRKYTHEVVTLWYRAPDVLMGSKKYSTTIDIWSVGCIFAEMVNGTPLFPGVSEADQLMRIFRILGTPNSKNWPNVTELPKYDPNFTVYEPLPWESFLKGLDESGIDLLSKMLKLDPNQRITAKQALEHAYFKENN
Chain of XCR1 / GPR5 (P46094 whole entry): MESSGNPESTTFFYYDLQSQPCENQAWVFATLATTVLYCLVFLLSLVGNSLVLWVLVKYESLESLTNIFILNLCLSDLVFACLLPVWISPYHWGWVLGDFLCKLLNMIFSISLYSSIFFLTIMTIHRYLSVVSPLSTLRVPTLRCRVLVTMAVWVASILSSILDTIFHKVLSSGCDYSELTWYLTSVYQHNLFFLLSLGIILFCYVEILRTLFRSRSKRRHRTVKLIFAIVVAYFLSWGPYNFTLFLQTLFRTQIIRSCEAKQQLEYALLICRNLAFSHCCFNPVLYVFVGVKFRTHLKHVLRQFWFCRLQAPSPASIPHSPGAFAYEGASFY
T2 sequence (P47211 whole entry): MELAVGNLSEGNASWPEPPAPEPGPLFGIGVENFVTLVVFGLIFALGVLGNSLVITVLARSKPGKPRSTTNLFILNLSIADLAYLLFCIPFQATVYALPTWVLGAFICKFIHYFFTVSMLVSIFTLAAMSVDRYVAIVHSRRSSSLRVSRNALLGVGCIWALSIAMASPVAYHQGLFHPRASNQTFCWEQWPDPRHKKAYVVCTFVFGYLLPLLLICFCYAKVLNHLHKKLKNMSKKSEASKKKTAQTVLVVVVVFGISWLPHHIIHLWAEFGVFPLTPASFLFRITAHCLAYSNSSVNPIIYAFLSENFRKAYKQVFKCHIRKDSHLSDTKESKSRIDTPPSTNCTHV
T4 sequence (Q01959 whole entry): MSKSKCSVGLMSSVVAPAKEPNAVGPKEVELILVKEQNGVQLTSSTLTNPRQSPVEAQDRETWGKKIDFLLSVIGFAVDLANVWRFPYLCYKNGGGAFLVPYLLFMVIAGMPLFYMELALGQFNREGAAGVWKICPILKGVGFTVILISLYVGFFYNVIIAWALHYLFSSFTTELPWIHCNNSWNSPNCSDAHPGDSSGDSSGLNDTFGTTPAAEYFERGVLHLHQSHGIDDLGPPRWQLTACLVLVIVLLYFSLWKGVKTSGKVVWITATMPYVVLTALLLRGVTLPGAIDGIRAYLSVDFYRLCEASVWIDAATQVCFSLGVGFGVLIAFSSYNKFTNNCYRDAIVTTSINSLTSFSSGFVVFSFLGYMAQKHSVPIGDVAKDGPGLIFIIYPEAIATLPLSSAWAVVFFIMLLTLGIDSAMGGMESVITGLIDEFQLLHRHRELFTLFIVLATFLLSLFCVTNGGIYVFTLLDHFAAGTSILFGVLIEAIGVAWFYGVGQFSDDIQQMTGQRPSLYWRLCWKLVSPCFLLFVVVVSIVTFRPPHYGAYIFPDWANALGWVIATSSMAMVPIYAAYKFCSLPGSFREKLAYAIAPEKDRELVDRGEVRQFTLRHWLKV

In the case of `[O-][S@@+](Cc1cncs1)C(c1ccccc1)c1ccccc1` [S-CE-123, (S)-5-((Benzhydrylsulfinyl)Methyl)Thiazole], the remaining binding at 2.8 µM on PFPK5(P.falciparum) came to 84%. Also, the figures for the inhibition at 2.8 µM at XCR1 / GPR5, on GAL1 and at secretin were -9.2%, 2.3% and 17.6%, respectively. This compound also displayed a Ki in experiment [1] of 610 nM.
